Experimental data reported in ChEMBL document CHEMBL1201862, “PubChem BioAssay data set” (2004).
Activity calls are given as the source filed them.

Assays:
cells = type: functional, cell-based
[1] = biological target: T1, Nuclear receptor subfamily 0 group B member 1 (Homo sapiens, UniProt P51843); type: functional, cell-based;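 also: HEK293T cells transfected with SF-1 and DAX-1 plus StAR promoter luciferase reporter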
T1 sequence (P51843 whole entry): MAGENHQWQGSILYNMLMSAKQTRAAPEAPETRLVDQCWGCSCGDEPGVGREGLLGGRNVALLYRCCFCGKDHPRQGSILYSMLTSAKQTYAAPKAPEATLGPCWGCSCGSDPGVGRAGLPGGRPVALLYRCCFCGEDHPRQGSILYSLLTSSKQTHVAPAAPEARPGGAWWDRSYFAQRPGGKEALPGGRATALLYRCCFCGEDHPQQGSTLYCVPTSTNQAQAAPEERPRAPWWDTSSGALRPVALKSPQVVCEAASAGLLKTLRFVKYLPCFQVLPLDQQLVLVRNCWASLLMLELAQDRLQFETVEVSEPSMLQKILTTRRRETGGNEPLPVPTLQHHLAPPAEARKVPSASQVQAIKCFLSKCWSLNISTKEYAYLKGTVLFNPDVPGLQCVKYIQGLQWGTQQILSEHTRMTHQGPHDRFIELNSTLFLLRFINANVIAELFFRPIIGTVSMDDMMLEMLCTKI

[2] = biological target: 26S proteasome non-ATPase regulatory subunit 14 (Homo sapiens, UniProt O00487); experiment: inhibition of proteasome subunit RPN11 – biochemical, fluorescence polarization, uHTS hits, confirmation (AID 602368); type: functional
26S proteasome non-ATPase regulatory subunit 14, sequence (O00487 whole entry): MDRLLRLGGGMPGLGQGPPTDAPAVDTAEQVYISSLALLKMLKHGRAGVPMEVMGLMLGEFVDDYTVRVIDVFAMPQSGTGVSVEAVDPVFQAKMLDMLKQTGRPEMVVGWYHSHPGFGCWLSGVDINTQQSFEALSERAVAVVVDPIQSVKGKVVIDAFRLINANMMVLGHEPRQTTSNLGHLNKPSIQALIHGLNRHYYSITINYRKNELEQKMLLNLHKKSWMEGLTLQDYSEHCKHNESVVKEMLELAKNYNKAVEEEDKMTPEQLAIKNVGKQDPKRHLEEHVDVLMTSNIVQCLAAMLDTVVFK

[3] = biological target: 72 kDa type IV collagenase (Homo sapiens, UniProt P08253); experiment: Dose Response validation of uHTS RPN11 inhibitor hits using a MMP-2 Fluorescence assay.; type: functional
72 kDa type IV collagenase, sequence (P08253 whole entry): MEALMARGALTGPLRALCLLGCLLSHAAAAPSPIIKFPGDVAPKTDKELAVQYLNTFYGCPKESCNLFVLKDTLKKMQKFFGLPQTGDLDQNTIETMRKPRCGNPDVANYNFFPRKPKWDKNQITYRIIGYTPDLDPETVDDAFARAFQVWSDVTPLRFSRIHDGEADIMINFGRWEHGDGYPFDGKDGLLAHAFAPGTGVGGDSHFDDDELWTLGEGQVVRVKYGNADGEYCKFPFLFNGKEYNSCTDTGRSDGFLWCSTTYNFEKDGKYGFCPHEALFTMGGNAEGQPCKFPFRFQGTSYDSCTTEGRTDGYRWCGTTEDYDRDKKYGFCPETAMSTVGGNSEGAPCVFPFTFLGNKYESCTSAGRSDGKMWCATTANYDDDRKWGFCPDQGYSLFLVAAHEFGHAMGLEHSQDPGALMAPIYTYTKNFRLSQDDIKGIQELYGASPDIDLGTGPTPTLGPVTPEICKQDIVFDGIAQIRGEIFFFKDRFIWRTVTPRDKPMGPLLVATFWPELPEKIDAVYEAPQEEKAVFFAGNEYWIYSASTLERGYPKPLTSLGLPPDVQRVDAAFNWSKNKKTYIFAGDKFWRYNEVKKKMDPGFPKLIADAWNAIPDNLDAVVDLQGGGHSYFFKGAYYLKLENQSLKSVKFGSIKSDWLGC

Prothrombin = Prothrombin (Bos taurus, UniProt P00735); experiment: thrombin inhibition, dose response, biochemical, fluorescence polarization, uHTS hits (AID 602369); type: functional
[4] = Luminescence Cell-Based Dose Confirmation HTS to Identify Activators of 5'UTR Stem-Loop Driven Alpha-Synuclein mRNA Translation in H4 Neuroglioblastoma Cells. [Related pubchem assays: 1829 (Project Summary), 1814 (Primary HTS)]; type: functional
[5] = Luminescence Cell-Based Dose Response HTS to Identify Activators of Luciferase Translation or Activity in H4 […] Cells. [Related pubchem assays: 1829 (Project Summary), 1814 (Primary HTS)]; type: functional
H4 = experiment: Luminescence Cell-Based Dose Response HTS to Identify Activators of 5'UTR Stem-Loop Driven Prion Protein mRNA Translation in H4 Neuroglioblastoma Cells. [Related pubchem assays: 1829 (Project Summary), 1814 (Primary HTS)]; type: functional; details: Homo sapiens
Cytochrome P450 2C19 = Cytochrome P450 2C19 (Homo sapiens, UniProt P33261); experiment: Cytochrome panel assay with activity outcomes. Panel member name: p450-cyp2c19 Compounds with AC50 equal or less than 10 uM are considered active; type: functional; details: read-out: AC50
Cytochrome P450 2C19, sequence (P33261 whole entry): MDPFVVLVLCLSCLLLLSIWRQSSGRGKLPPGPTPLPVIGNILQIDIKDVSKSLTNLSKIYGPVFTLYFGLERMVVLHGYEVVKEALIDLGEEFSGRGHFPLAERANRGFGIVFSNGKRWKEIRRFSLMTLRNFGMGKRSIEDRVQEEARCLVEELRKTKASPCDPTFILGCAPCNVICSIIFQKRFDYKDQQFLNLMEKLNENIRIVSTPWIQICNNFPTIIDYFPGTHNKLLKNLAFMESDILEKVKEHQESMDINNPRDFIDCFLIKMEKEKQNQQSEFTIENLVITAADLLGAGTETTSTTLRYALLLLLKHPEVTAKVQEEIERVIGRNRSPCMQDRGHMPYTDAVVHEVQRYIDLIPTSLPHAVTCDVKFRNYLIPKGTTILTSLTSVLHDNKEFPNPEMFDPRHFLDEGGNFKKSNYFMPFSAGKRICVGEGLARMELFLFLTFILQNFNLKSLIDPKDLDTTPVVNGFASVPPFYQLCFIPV

Cytochrome P450 3A4 = Cytochrome P450 3A4 (Homo sapiens, UniProt P08684);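 also: CYP3A4 tested as one member of a cytochrome P450 panel screen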
Cytochrome P450 3A4, sequence (P08684 whole entry): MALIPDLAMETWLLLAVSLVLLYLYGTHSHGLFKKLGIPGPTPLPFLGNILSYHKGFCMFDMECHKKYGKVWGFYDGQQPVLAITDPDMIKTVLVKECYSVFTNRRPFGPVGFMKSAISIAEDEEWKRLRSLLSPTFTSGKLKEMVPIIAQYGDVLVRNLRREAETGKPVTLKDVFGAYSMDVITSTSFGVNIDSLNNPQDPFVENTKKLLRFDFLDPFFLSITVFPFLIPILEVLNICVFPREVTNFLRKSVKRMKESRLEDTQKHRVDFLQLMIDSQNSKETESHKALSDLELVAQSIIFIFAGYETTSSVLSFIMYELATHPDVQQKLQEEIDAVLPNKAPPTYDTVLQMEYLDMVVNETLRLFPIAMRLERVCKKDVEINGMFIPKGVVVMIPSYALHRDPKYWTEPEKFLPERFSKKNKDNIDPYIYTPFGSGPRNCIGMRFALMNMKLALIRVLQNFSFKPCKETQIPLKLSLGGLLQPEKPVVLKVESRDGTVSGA

Cytochrome P450 2C9 = Cytochrome P450 2C9 (Homo sapiens, UniProt P11712)
Cytochrome P450 2C9, sequence (P11712 whole entry): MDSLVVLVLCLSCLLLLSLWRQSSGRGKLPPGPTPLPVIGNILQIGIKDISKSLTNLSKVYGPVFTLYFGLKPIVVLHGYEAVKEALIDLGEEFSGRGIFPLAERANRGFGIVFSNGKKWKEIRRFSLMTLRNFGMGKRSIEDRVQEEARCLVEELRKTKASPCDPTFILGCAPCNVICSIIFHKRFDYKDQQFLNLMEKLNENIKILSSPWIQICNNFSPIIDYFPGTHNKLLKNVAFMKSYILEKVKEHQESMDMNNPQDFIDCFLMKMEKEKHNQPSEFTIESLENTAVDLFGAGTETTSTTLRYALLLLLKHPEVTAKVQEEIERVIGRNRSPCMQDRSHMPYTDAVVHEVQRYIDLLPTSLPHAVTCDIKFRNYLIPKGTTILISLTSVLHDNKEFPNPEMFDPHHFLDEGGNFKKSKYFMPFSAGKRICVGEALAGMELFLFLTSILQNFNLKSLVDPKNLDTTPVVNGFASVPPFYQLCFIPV

Melanocortin receptor 4 = Melanocortin receptor 4 (Homo sapiens, UniProt P32245); type: functional, cell-based;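 also: Cell-based assay with luminescence read-out, confirmatory dose-response testing for agonist activity of biased ligands at MC4R; human U2OS cells with tagged receptor and beta-arrestin; potency of agonists that increase receptor coupling to beta-arrestin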
Melanocortin receptor 4, sequence (P32245 whole entry): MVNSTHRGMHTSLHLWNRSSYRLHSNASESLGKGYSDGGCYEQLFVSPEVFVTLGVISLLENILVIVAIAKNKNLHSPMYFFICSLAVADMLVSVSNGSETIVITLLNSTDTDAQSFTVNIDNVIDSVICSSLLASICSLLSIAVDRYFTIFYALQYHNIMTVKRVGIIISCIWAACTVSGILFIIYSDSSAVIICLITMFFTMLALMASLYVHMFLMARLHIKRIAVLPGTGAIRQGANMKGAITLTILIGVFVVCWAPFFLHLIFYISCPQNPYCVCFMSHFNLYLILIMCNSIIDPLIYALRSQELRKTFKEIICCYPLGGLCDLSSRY

[6] = biological target: T2, Probable nicotinate-nucleotide adenylyltransferase (Staphylococcus aureus (strain N315), UniProt P65502); type: functional, Staphylococcus aureus subsp. aureus N315;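 as to IC50 Mean: confirmatory dose-response retesting of NadD inhibitor hits first found in an ultra-high-throughput screen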
T2 sequence (P65502 whole entry): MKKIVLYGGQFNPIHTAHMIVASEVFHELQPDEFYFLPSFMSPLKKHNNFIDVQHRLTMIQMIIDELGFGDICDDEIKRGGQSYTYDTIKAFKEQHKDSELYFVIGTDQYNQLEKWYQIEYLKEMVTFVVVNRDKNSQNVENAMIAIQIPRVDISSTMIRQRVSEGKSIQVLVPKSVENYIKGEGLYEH

[7] = biological target: T2, Probable nicotinate-nucleotide adenylyltransferase; type: functional, Staphylococcus aureus subsp. aureus N315; details: read-out: IC50_Mean
HeLa = experiment: HeLa cell cytotoxicity, dose response, cytotoxicity control for MITF activator project, CellTiter-Glo luminescence, cherry-pick samples (AID 540259); type: functional, cell-based; details: Homo sapiens
[8] = biological target: T3, Sentrin-specific protease 8 (Homo sapiens, UniProt Q96LD8); experiment: SENP8 protease inhibitors, SAR follow-up, biochemical, luminescence (AID 504501); type: functional
T3 sequence (Q96LD8 whole entry): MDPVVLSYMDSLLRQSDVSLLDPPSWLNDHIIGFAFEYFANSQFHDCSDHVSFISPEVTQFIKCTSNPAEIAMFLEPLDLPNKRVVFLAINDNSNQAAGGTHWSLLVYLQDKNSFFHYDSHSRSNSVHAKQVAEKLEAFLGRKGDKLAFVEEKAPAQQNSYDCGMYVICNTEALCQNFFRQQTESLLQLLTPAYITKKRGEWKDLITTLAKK

Caspase-3 = biological target: T4, Caspase-3 (Homo sapiens, UniProt P42574); experiment: SAR Analysis of small molecule inhibitors of Sentrin-specific proteases (SENPs) using a Caspase-3 Selectivity assay. [Related pubchem assays (depositor defined):AID2540, AID2599, AID434973, AID489001]; type: functional
T4 sequence (P42574 whole entry): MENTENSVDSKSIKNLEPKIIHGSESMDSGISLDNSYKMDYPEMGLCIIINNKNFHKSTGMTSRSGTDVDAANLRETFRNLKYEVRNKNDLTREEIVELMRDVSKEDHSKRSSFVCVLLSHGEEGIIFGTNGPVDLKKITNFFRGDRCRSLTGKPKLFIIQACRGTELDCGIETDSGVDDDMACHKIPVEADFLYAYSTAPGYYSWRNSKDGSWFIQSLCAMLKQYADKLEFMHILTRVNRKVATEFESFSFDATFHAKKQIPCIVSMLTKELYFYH

[9] = biological target: T5, Sentrin-specific protease 6 (Homo sapiens, UniProt Q9GZR1); experiment: SAR Analysis of small molecule inhibitors of Sentrin-specific protease 6 (SENP6) using a Luminescent assay. [Related pubchem assays (depositor defined):AID2582, AID2599]; type: functional
T5 sequence (Q9GZR1 whole entry): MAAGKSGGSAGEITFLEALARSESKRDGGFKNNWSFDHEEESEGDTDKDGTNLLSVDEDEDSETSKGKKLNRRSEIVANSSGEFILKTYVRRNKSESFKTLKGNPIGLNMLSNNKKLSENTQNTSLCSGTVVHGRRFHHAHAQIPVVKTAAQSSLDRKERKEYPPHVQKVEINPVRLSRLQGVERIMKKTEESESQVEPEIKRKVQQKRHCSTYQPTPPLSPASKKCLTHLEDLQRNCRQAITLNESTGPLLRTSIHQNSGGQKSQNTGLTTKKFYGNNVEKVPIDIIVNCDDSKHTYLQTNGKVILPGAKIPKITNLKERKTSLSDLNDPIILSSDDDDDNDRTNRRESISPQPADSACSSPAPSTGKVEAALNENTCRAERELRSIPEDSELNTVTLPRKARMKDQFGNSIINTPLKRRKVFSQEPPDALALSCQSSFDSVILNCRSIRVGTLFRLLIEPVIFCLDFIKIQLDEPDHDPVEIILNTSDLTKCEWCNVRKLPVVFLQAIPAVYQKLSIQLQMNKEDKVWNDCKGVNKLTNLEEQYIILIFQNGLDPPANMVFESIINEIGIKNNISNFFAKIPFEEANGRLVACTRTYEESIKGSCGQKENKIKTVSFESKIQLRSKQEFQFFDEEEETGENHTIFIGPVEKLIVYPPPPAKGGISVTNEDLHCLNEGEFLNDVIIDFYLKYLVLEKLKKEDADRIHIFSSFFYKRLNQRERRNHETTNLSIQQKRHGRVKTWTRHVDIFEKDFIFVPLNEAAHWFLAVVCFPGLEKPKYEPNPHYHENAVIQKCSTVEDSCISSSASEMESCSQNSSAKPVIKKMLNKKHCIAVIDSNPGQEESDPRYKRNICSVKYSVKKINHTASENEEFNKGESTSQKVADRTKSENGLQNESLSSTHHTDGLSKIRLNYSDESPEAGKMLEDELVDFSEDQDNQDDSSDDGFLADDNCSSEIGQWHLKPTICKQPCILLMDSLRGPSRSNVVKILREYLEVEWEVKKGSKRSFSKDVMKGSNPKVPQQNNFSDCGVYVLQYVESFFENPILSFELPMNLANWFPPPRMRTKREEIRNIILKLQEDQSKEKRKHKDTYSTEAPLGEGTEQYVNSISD

[10] = biological target: T6, Sentrin-specific protease 7 (Homo sapiens, UniProt Q9BQF6); experiment: SENP7 protease inhibitors, SAR follow-up, biochemical, luminescence (AID 504497); type: functional
T6 sequence (Q9BQF6 whole entry): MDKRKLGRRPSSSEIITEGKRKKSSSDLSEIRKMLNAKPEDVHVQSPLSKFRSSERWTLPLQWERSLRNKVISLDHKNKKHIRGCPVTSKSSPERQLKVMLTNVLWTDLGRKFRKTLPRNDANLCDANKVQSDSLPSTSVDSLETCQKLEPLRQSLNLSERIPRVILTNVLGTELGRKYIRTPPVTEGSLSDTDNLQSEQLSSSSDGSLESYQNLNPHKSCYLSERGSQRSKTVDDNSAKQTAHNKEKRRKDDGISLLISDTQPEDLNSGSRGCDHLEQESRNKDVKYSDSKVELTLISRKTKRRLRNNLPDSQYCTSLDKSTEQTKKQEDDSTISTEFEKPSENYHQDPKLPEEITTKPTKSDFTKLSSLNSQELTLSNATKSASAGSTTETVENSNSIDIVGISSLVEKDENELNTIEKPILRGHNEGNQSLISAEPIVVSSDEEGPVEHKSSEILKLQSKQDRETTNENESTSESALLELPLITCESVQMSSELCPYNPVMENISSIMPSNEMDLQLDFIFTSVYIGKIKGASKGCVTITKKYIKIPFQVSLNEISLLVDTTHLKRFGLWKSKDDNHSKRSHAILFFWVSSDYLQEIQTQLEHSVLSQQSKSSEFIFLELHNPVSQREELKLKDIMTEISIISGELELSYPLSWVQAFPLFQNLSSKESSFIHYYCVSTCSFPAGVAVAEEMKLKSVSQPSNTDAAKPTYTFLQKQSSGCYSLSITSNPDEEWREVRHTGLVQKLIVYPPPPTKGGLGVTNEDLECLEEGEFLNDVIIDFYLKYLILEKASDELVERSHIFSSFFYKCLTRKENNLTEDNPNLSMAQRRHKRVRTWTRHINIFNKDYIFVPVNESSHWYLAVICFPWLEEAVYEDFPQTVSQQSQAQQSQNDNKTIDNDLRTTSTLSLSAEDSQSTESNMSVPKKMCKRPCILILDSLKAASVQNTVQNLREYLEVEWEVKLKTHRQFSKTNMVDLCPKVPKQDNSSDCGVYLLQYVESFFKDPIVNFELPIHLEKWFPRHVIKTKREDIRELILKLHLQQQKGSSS

H9c2 = experiment: cells; type: functional, cell-based; details: Rattus norvegicus, H9c2, Myocardium;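 also: confirmatory concentration-response retest of ultra-high-throughput screening hits for modulation of myocardial damage; cell death induced by hydrogen peroxide oxidative stress; compound pretreatment for 60 min then peroxide exposure for 2 h; potency is for protecting the cells against peroxide damage rather than for killing them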
[11] = biological target: Induced myeloid leukemia cell differentiation protein Mcl-1 (Homo sapiens, UniProt Q07820); type: functional
Induced myeloid leukemia cell differentiation protein Mcl-1, sequence (Q07820 whole entry, the tested form may be a part): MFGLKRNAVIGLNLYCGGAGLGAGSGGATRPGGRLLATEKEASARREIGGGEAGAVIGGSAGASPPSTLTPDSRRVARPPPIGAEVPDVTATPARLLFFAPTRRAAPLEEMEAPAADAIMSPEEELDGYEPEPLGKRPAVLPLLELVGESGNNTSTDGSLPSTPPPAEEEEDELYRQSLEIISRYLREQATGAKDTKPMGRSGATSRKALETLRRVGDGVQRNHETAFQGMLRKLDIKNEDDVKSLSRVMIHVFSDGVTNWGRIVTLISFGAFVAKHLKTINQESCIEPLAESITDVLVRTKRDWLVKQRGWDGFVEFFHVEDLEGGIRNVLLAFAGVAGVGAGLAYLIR

[12] = biological target: T7, Carboxy-terminal domain RNA polymerase II polypeptide A small phosphatase 1 (Homo sapiens, UniProt Q9GZU7); experiment: inhibitors of CTDSP1, concentration-response testing, biochemical assay, absorbance-based, actives from ultra-high-throughput screening (AID 540297); type: functional
T7 sequence (Q9GZU7 whole entry): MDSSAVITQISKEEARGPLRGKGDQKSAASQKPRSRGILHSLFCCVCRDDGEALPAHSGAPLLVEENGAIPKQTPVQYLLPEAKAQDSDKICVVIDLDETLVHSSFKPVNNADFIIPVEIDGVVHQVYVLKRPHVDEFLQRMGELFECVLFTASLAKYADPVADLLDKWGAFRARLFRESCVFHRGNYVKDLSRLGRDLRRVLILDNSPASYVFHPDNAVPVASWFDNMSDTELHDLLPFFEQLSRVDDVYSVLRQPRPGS

COc1ccc(-n2nc3cc(C)c(NC(C)=O)cc3n2)cc1
IC50 (cells): > 67.6 µM (inactive)
IC50 [1]: > 0.278 µM (active)

COc1cc(/C=C/c2nc(O)c3ccccc3n2)cc(Br)c1O
IC50 [2]: 0.914 µM (active)
IC50 [3]: > 100 µM (inactive)
IC50 (Prothrombin): 88 µM (active)

CCc1ccc(-c2cc(C(=O)NCc3ccco3)c3ccccc3n2)s1
EC50 [4]: 11.2 µM (active)
EC50 [5]: 5.65 µM (active)
EC50 (H4): 23.9 µM (active)
AC50 (Cytochrome P450 2C19): 4.47 µM (inconclusive)
IC50 [2]: 40.7 µM (active)
IC50 [3]: > 100 µM (inactive)
IC50 (Prothrombin): 55.8 µM (active)
AC50 (Cytochrome P450 3A4): 15.8 µM (inconclusive)
AC50 (Cytochrome P450 2C9): 2 µM (inconclusive)

CCOCCCN(Cc1ccco1)C(=O)c1cc2c(=O)[nH]c3ccc(C)cc3c2s1
EC50 (Melanocortin receptor 4): > 89.2 µM (inactive)

NC(CSC1(c2cccc3ccccc23)c2ccccc2-c2ccccc21)C(=O)O (stereo unspecified)
IC50 [6]: 9.51 µM (active)
IC50 [7]: 27.7 µM (active)

CCCCNc1ccc2c(c1)C1CC2CCN1C(=O)OCc1ccccc1 (stereo unspecified)
AC50 (HeLa): 76.2 µM (active)
IC50 (cells): > 67.5 µM (inactive)
IC50 [1]: > 67.5 µM (inactive)

Cc1ccc([S+]([O-])Cc2ccc(C(=O)N3CCN(C4CCCCC4)CC3)o2)cc1 (stereo unspecified)
IC50 (cells): > 67.6 µM (inactive)
IC50 [1]: > 67.6 µM (inactive)

COc1ccc(N/N=C/c2c[nH]c3ccccc23)cc1
IC50 [8]: 29.5 µM (active)
IC50 (Caspase-3): 19.9 µM (active)
IC50 [9]: 25.8 µM (active)
IC50 [10]: 11.4 µM (active)

COc1ccccc1-c1cc(NC(C)=O)c2ncc(-c3cccc(C(C)=O)c3)n2c1
IC50 (H9c2): > 79 µM (inactive)
EC50 (Melanocortin receptor 4): > 89.2 µM (inactive)

COc1cccc(-c2noc(/C=C/c3ccccc3Cl)n2)c1
IC50 [8]: 18 µM (active)
IC50 (Caspase-3): 20 µM (active)
IC50 [9]: 14 µM (active)
IC50 [10]: 5.2 µM (active)

O=C(N/N=C\C=C\c1ccco1)c1cc(-c2ccc3ccccc3c2)[nH]n1
IC50 [11]: 3.98 µM (active)
IC50 [12]: 2.96 µM (active)
IC50 [6]: 6.68 µM (active)
IC50 [7]: 20.3 µM (active)
